24 compounds from patent US4446047A, “Pleochroic anthraquinone dyes” (Imperial Chemical Industries PLC, priority 1981, dated 1984) can be followed below.

The nature of data set [1]: Order parameter in liquid crystal medium E43. Format: physicochemical. The settings on record: E43, 20° C. As to the method:
(§1) In order to provide maximum contrast between the two states it is important that the guest molecules adopt as closely as possible the time averaged orientation of the host, however this is achieved only to a limited degree because of random thermal fluctuations. The degree to which the orientation varies from the ideal is measured by a quantity known as the order parameter S which is given by the following equation: […]
where cos^2 θ is a time averaged term and θ is the instantaneous angular orientation of the molecules with respect to the time averaged orientation of the host molecules.

A short description of data set [2]: Absorption maximum in liquid crystal medium E43. Format: physicochemical. The settings on record: E43, 20° C.; for λmax: Table 4; for max: HPLC fractions, Table 3.
Text: (§15) Detection was by means of a u.v. source (254 nm) and samples, corresponding to all the peaks in the chromatogram, were collected.
Data set [3] can be described thus: Molar extinction coefficient in chloroform. Format: physicochemical. As to the method: To a mixture of 9.4 g of 2,7-di-n-pentyl-4,5-dinitrochrysazin from Example 25(b) in 200 ml of pyridine at 20° C. there was added a solution of 2.2 ml of thiophenol in 50 ml of pyridine. The colour of the mixture gradually changed from orange-brown to red and after 2 hours at 20° C. was drowned into water, filtered, washed successively with water and methanol and dried to yield 9.5 g of product (88% theory). The structure was confirmed by mass spectrometry and elemental analysis, C=67.5 (67.5) H=5.8 (5.8) S=6.7 (6.0) and N=3.0 (2.7).
To a mixture of 1.7 ml of 4-t-butylphenylmercaptan and 0.4 g of KOH in 50 ml of isopropanol at 60° C. was added 3.7 g of the product of Example 25(c) and the temperature raised to 80° C. for 1.5 hour. It was then cooled to room temperature, filtered, washed successively with isopropanol and methanol and dried to give 3.5 g of product. After recrystallisation from petroleum ether, the structure was confirmed by mass spectrometry and elemental analysis, C=73.0 (73.6) H=6.5 (6.8) S=9.1 (9.8).
The process of Example 25(c) was repeated using 9.6 g of 2,7-n-heptyl-4,5-dinitrochrysazin in place of the 9.4 g of 2,7-di-n-pentyl-4,5-dinitrochrysazin. The structure was confirmed by mass spectrometry.
The process of Example 25(d) was repeated using 3.8 g of 2,7-di-n-heptyl-4-phenylthio-5-nitrochrysazin in place of the 3.7 g of 2,7-di-n-pentyl-4-phenylthio-5-nitrochrysazin. After recrystallisation from petroleum ether, the structure was confirmed by mass spectrometry.

The nature of data set [4]: Solubility in other liquid crystal media (hosts) / liquid crystal materials. Type of data set: physicochemical. As to conditions: general statement. As to the method:
(§2) The properties of some of the dyes described in the Examples were also measured in other liquid crystal media (hosts) at 20° C., unless otherwise stated, and the results are set out in Table 5.
(§3) The liquid crystal materials referred to in Table 5 as Hosts 1 to 12 have the following compositions:
(§4) Host 1 is the liquid crystal material E7, available from BDH Chemicals Ltd, which includes the compounds:
(§5) Host 2 is the liquid crystal material ZLI 1132, available from E Merck & Co, which includes the following compounds:
(§6) Host 3 is the liquid crystal material ZLI 1695, available from E Merck & Co, Darmstadt, West Germany. This has a clearing point (nematic to isotropic transition temperature) of 72° C.
(§7) Host 4 is a mixture of alkyl-cyanophenyl-dioxanes containing n-propyl, n-pentyl and n-heptyl chains.
(§8) Host 5 is the liquid crystal material ZLI 1565, available from E Merck & Co. This has a clearing point of 85° C.
(§9) Host 6 is the liquid crystal material ZLI 1624, available from E Merck & Co. This has a clearing point of 87° C.
(§10) Host 8 is the liquid crystal material RO-TN 430 available from Hoffmann La Roche Co. This has a clearing point of 69° C.
(§11) Host 9 is a mixed bicyclo-octane liquid crystal material containing the following compounds:
(§12) Host 10 is a mixture of liquid crystal materials based mainly on cyanobiphenyls and available from BDH Chemicals Ltd under the name E61.
(§13) Host 11 is a mixture of liquid crystal materials based mainly on cyanobiphenyls and available from BDH Chemicals Ltd under the name E49.
(§14) Host 12 is a mixture of fluorobicyclo(2,2,2)octane esters having negative anisotropy and containing a mixture of two compounds of the following formula: […]

The nature of data set [5]: Order parameter in other liquid crystal media (hosts) / liquid crystal materials. Format: physicochemical. As to conditions: general statement. As to the method:
as §1
where cos^2 θ is a time averaged term and θ is the instantaneous angular orientation of the molecules with respect to the time averaged orientation of the host molecules. The determination of the value of the order parameter S is well understood in the art, see for example the paper, "A new absorptive mode reflective liquid crystal display device", by D. L. White and G. N. Taylor in the Journal of Applied Physics, 1974, 45, pages […] to 4723.
as §2, §3, §4, §5, §6, §7, §8, §9, §10, §11, §12, §13, §14

The nature of data set [6]: Solubility in liquid crystal material E43. As to conditions: E43, 20° C., HPLC fractions, Table 3.
Experimental: The solubility of the product was measured in liquid crystal material E43 marketed by BDH Chemicals Limited of Broom Road, Poole, Dorset, England.
as §15

As for `CCCCCCCc1cc(Sc2ccccc2)c2c(c1O)C(=O)c1c(O)c(CCCCCCC)cc(Sc3ccc(C(C)(C)C)cc3)c1C2=O` [26(d), 2,7-Di-n-heptyl-4-phenylthio-5-(4-t-butylphenylthio)chrysazin], in data set [1] (Table 4), the “Order Parameter” value was determined as 0.78. In data set [2], this compound displayed a λmax of 592 nm. Besides, the molar extinction coefficient in data set [3] (592 nm) is recorded as 19,650. The “solubility in liquid crystal materials (in words)” value in data set [4] is reported as “particularly good”. Further, the “order parameter in liquid crystal materials (in words)” value in data set [5] is recorded as “high”.
As to `CC(C)(C)c1ccc(Sc2cccc3c2C(=O)c2c(Sc4ccccc4)ccc(Sc4ccc(C(C)(C)C)cc4)c2C3=O)cc1` [Example 22, 1,5-di(4-t-butylphenylthio)-4-phenylthio-AQ], the “Order Parameter” value in data set [1] (Table 4) is on record as 0.81. Further, the λmax in data set [2] is listed as 520 nm.
Turning to `O=C1c2c(Sc3ccccc3)ccc(Sc3ccccc3)c2C(=O)c2c(Sc3ccccc3)ccc(Sc3ccccc3)c21` (single isomer, unassigned) [1,4,5,8-tetrakis(phenylthio)anthraquinone, reference compound], in data set [1] (HPLC fractions, Table 3), the “Order Parameter” value is 0.78. In data set [2], this compound came in with a max of 550 nm.
As for `CCCCCCCc1cc(Sc2ccccc2)c2c(c1O)C(=O)c1c(O)c(CCCCCCC)cc([N+](=O)[O-])c1C2=O` [Example 26(c), 2,7-Di-n-heptyl-4-phenylthio-5-nitrochrysazin], the molar extinction coefficient in data set [3] (540 nm) was 12,095.
Regarding `CC(C)(C)c1ccc(Sc2ccc(N)c3c2C(=O)c2c(N)ccc(Sc4ccccc4)c2C3=O)cc1` [Example 18, 1-phenylthio-5(4-t-butylphenylthio)-4,8-diamino-AQ], the “Order Parameter” value in data set [1] (Table 4) was found to be 0.73. The same compound registered a λmax in data set [2] of 605 nm.
In the same order, the values of `Cc1cccc(Sc2cccc3c2C(=O)c2cccc(Sc4ccccc4)c2C3=O)c1` [Example 12, 1-phenylthio-5(3-methylphenylthio)AQ] are 0.78 and 464 nm.
With `CC(CCc1cc(N)c2c(c1O)C(=O)c1c(Sc3ccccc3)cc(CCC(C)CC(C)(C)C)c(O)c1C2=O)CC(C)(C)C` (stereo not shown) [Example 23(c), 1,5-dihydroxy-2,6-dinonyl-4-phenylthio-8-aminoanthraquinone], the “Order Parameter” value in data set [1] (Table 4) was found to be 0.73. Moreover, the λmax in data set [2] was 565/610.
The like results for `Cc1ccc(Sc2cccc3c2C(=O)c2cccc(Sc4ccccc4)c2C3=O)cc1` [Example 13, 1-phenylthio-5(4-methylphenylthio)AQ] were, in that order, 0.80 and 464 nm.
Consider `CCCCSc1cccc2c1C(=O)c1cccc(Sc3ccccc3)c1C2=O` [Example 14, 1-phenylthio-5(n-butylthio)AQ], for which, in data set [1] (Table 4), the “Order Parameter” value came to 0.75. Moreover, in data set [2], the λmax is reported as 470 nm.
“bis-(phenylthio)-bis-(t-butylphenylthio)AQ [Fraction 4]”: in data set [1] (HPLC fractions, Table 3), the “Order Parameter” value is listed as 0.77. In data set [2], this compound came in with a max of 550 nm.
As for `CC(CCc1cc(Sc2ccccc2)c2c(c1O)C(=O)c1c(Sc3ccccc3)cc(CCC(C)CC(C)(C)C)c(O)c1C2=O)CC(C)(C)C` (stereo not shown) [Example 23(e), 1,5-dihydroxy-2,6-dinonyl-4,8-diphenylthio-AQ], the “Order Parameter” value in data set [1] (Table 4) is listed as 0.77. Also, in data set [2], the λmax is 590 nm.
As for `O=C1c2cccc(Sc3ccc(-c4ccccc4)cc3)c2C(=O)c2cccc(Sc3ccccc3)c21` [Example 15, 1-phenylthio-5(4-phenylphenylthio)AQ], the “Order Parameter” value in data set [1] (Table 4) was 0.78. In addition, the λmax in data set [2] turned out to be 460 nm.
The like results for `CC(CCc1cc(Sc2ccccc2)c2c(c1O)C(=O)c1c(O)c(CCC(C)CC(C)(C)C)cc(Sc3ccccc3)c1C2=O)CC(C)(C)C` (stereo not shown) [23(f), 1,8-dihydroxy-2,7-dinonyl-4,5-diphenylthio-AQ] were, in that order, 0.72 and 590 nm.
Regarding “bis-(phenylthio)-bis-(t-butylphenylthio)AQ [Fraction 3]”, the Solubility in data set [6] is < 0.5%.
For the compound `CCCCCCCCCCCCc1cc(Sc2ccccc2)c2c(c1O)C(=O)c1c(O)c(CCCCCCCCCCCC)cc(Sc3ccc(C(C)(C)C)cc3)c1C2=O` [24(d), 1,8-dihydroxy-2,7-didodecyl-4-phenylthio-5-(4-t-butylphenylthio)-AQ], the “Order Parameter” value in data set [1] (Table 4) is listed as 0.83. Further, the λmax in data set [2] is reported as 590 nm.
Consider `CC(C)(C)c1ccc(Sc2ccc(Sc3ccccc3)c3c2C(=O)c2c(Sc4ccc(C(C)(C)C)cc4)ccc(Sc4ccc(C(C)(C)C)cc4)c2C3=O)cc1` [Fraction 2, tris-(t-butylphenylthio)-phenylthio-AQ], for which the “Order Parameter” value in data set [1] (HPLC fractions, Table 3) is 0.78. The same compound registered a max in data set [2] of 550 nm.
Consider `CCCCCc1cc(Sc2ccccc2)c2c(c1O)C(=O)c1c(O)c(CCCCC)cc([N+](=O)[O-])c1C2=O` [Example 25(c), 2,7-Di-n-pentyl-4-phenylthio-5-nitrochrysazin], for which, in data set [3] (540 nm), the molar extinction coefficient is reported as 12,541.
As to `CC(CCc1cc(Sc2ccccc2)c2c(c1O)C(=O)c1c([N+](=O)[O-])cc(CCC(C)CC(C)(C)C)c(O)c1C2=O)CC(C)(C)C` (stereo not shown) [Example 23(a), 1,5-dihydroxy-2,6-dinonyl-4-phenylthio-8-nitroanthraquinone], in data set [1] (Table 4), the “Order Parameter” value is 0.72. For the same compound, the λmax in data set [2] is listed as 565/610.
As for `CC(C)(C)c1ccc(Sc2ccc(Sc3ccc(C(C)(C)C)cc3)c3c2C(=O)c2c(Sc4ccc(C(C)(C)C)cc4)ccc(Sc4ccc(C(C)(C)C)cc4)c2C3=O)cc1` (single isomer, unassigned) [1,4,5,8-tetrakis(4-t-butylphenylthio)anthraquinone, reference compound], in data set [1] (HPLC fractions, Table 3), the “Order Parameter” value is 0.78. The compound further showed a max in data set [2] of 550 nm.
The like results for “bis-(phenylthio)-bis-(t-butylphenylthio)AQ [Fraction 3a]” were, in that order, 0.78 and 550 nm.
On to `O=C1c2cccc(SC3CCCCC3)c2C(=O)c2cccc(Sc3ccccc3)c21` [Example 16, 1-phenylthio-5-cyclohexylthio-AQ], for which the “Order Parameter” value in data set [1] (Table 4) stood at 0.81. For the same compound, in data set [2], the λmax came to 465 nm.
The like results for `CC(CCc1cc(N)c2c(c1O)C(=O)c1c(O)c(CCC(C)CC(C)(C)C)cc(Sc3ccccc3)c1C2=O)CC(C)(C)C` (stereo not shown) [23(d), 1,8-dihydroxy-2,7-di-nonyl-4-phenylthio-5-aminoanthraquinone] were, in that order, 0.74 and 565/610.
As for `CC(C)(C)c1ccc(Sc2ccc(Sc3ccccc3)c3c2C(=O)c2c(Sc4ccccc4)ccc(Sc4ccccc4)c2C3=O)cc1` [Fraction 5, tris-(phenylthio)-t-butylphenylthio-AQ], in data set [1] (HPLC fractions, Table 3), the “Order Parameter” value is 0.78. This compound also gave a max in data set [2] of 550 nm.
Regarding `CCCCCc1cc(Sc2ccccc2)c2c(c1O)C(=O)c1c(O)c(CCCCC)cc(Sc3ccc(C(C)(C)C)cc3)c1C2=O` [Example 25(d), 2,7-di-n-pentyl-4-phenylthio-5-(4-t-butylphenylthio)chrysazin], in data set [1] (Table 4), the “Order Parameter” value was determined as 0.77. In data set [2], this compound gave a λmax of 592 nm. The molar extinction coefficient in data set [3] (592 nm) was 19,183.
